# Assay results: patent publication US5229420A, “Ethereal N-terminal aminodiol amino acid derivatives as anti-hypertensive agents” (G. D. Searle & Co., priority 1991, dated 1993)
# Where a SMILES comes first, the peptide text is derived from it. [ ]: non-standard residue; d: D form. The star is where a group is joined. Sta = CC(C)C[C@H](N)[C@@H](O)CC(=O)O; Isovaleryl = CC(C)CC(=O)*
# Key:
# renin = conditions: cited from earlier work
# pepsin = conditions: cited from earlier work
# hog renin = conditions: after injection of hog renin into nephrectomized rats; cited from earlier work
# cathepsin D = conditions: cited from earlier work
# human renin = molecular target: T1, human renin (Homo sapiens, UniProt P00797); assay: human renin inhibition test, in vitro (angiotensin I by radioimmunoassay); assay type: biochemical; conditions: pH 7.4, 37° C., two hours
# T1 construct: purchased National Institute for Biological Standards, London
# T1 sequence (P00797 67-406): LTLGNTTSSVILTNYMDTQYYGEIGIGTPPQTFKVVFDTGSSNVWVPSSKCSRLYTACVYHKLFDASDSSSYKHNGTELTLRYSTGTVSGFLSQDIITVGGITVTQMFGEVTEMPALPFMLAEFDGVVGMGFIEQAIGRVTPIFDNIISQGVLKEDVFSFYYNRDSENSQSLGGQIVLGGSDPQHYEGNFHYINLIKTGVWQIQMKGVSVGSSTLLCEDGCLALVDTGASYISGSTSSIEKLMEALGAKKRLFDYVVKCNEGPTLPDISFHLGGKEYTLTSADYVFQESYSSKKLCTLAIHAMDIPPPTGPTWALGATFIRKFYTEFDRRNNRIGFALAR
# Procedure: Compounds of Formula I were evaluated as inhibitors of human renin in an in vitro assay, as follows: This human renin inhibition test has been previously described in detail [Papaioannou et al., Clinical and Experimental Hypertension, A7(9), 1243-1257 (1985)]. Human renin was obtained from the National Institute for Biological Standards, London. An incubation mixture was prepared containing in total volume of 0.25 mL 100 mM Tris-acetate buffer at pH 7.4, 25×10^-6 Goldblatt units of renin, 0.05 mL of plasma from human volunteers taking oral contraceptives,6.0 mM sodium EDTA, 2.4 mM phenylmethyl sulfonyl fluoride, 1.5 mM 8-hydroxyquinoline, 0.4 mg/mL BSA, and 0.024 mg/mL neomycin sulfate. This mixture was incubated for two hours at 37° C. in the presence or absence of renin inhibitors. The produced angiotensin I was determined by radioimmunoassay (New England Nuclear kit). Test compounds to be assayed were solubilized in DMSO and diluted with 100mM Tris-acetate buffer at pH 7.4 containing 0.5 % bovine serum albumin (BSA) to the appropriate concentration. The final concentration of organic solvent in the reaction mixture was less than 1%. Control incubations at 37° C. were used to correct for effects of organic solvent on renin activity.
# Plasma Renin Activity = assay: Oral Effect of Compounds on Plasma Renin Activity in Sodium Depleted Marmoset; assay type: in vivo, Common marmosets (Callithrix jacchus); conditions: @ 1 h, 3 mg/kg dose
# Procedure: The oral activity of compounds of Formula I was determined in vivo in Marmoset monkeys in accordance with the following procedure: Common marmosets (Callithrix jacchus, Charles River) were placed on a modified high protein low sodium diet (Purina, St. Louis, Mo.) for 1 to 2 weeks. On the day of the test an animal was anesthetized with isoflurane and cannulated in the femoral artery and vein for blood pressure monitoring, intravenous saralasin infusion and blood sampling. After allowing the animal to recover from surgery for 2 hr, saralasin was infused at 1 microgram/min for 15 minutes to confirm that the animal's blood pressure was dependent on angiotensin II levels. The marmoset was allowed to stabilize for 30 min after the saralasin infusion. The test compound was administered orally and blood pressure was monitored for 2 hr. Blood samples were taken in K-EDTA for plasma renin activity before, 30 min, and 1 hr after compound administration.
SMILES,IC50 (human renin),% Reduction of Plasma Renin Activity (Plasma Renin Activity),also measured
CC(C)CC(=O)N[C@H](C(=O)N[C@H](C(=O)N[C@@H](CC(C)C)[C@@H](O)CC(=O)N[C@@H](C)C(=O)N[C@@H](CC(C)C)[C@@H](O)CC(=O)O)C(C)C)C(C)C [pepstatin] (Isovaleryl-VV[Sta]A[Sta]-OH),,,"inhibition of renin (in words) (renin): inhibitor of aspartyl proteases such as pepsin, cathepsin D and renin; inhibition of pepsin (in words) (pepsin): inhibitor of aspartyl proteases such as pepsin; reduction of blood pressure in vivo (hog renin): found to reduce blood pressure in vivo; inhibition of cathepsin D (in words) (cathepsin D): inhibitor of aspartyl proteases such as pepsin, cathepsin D"
"COCCN(C)C(=O)O[C@@H](Cc1ccccc1)C(=O)N[C@@H](Cc1cnc[nH]1)C(=O)N[C@@H](CC1CCCCC1)[C@@H](O)[C@@H](O)CC(C)C [Example 8, O-[N-methyl-N-(2-methoxyethyl)aminocarbonyl]-3-L-phenyllactyl-L-histidineamide of (2S,3R,4S)-2-amino-1-cyclohexyl-3,4-dihydroxy-6-methylheptane]",1.2 nM,99%,
"CC[C@H](CNC(=O)[C@H](CCc1ccccc1)CC(=O)N(C)CCOC)C(=O)N[C@@H](CC1CCCCC1)[C@@H](O)[C@@H](O)CC(C)C [Example 15, 3-(N-methyl-N-(2-methoxyethyl)aminocarbonyl)-2-(R)-(2-phenylethyl)propionyl-α-(R)-ethyl-β-alanineamide of (2S,3R,4S)-2-amino-1-cyclohexyl-3,4-dihydroxy-6-methylheptane]",,,inhibition at 0.05 µM (human renin; @ 5 × 10^-8 M): 17%
"COCCN(C)C(=O)O[C@@H](Cc1ccccc1)C(=O)N[C@@H](CC(C)C)C(=O)N[C@@H](CC1CCCCC1)[C@@H](O)[C@@H](O)CC(C)C [Example 9, O-(N-methyl-N-(2-methoxyethyl)aminocarbonyl)-3-L-phenyllactyl-L-leucineamide of (2S,3R,4S)-2-amino-1-cyclohexyl-3,4-dihydroxy-6-methylheptane]",10 nM,79%,

# More lines, main results first:
IC50 (human renin),SMILES,% Reduction of Plasma Renin Activity (Plasma Renin Activity),also measured
45 nM,"COCCN(C)C(=O)C[C@@H](CCc1ccccc1)C(=O)NC[C@@H](C)C(=O)N[C@@H](CC1CCCCC1)[C@@H](O)[C@@H](O)CC(C)C [Example 16, 3-(N-methyl-N-(2-methoxyethyl)aminocarbonyl)-2-(R)-2-phenethylpropionyl-α-(R)-methyl-β-alanineamide of (2S,3R,4S)-2-amino-1-cyclohexyl-3,4-dihydroxy-6-methylheptane]",,
62 nM,"COCCN(C)C(=O)O[C@@H](Cc1ccccc1)C(=O)NC[C@@H](C)C(=O)N[C@@H](CC1CCCCC1)[C@@H](O)[C@@H](O)CC(C)C [Example 13, O-(N-methyl-N-(2-methoxyethyl)aminocarbonyl)-3-L-phenyllactyl-α-(R)-methyl-β-alanineamide of (2S,3R,4S)-2-amino-1-cyclohexyl-3,4-dihydroxy-6-methylheptane]",,
